Laboratory results from US20240041813A1, “VERY-LONG-CHAIN POLYUNSATURATED FATTY ACIDS, ELOVANOID HYDROXYLATED DERIVATIVES, AND METHODS OF USE” (priority 2020, published 2024).
Entries after “also recorded” stand apart in the source; their conditions may differ.

What was measured:
Alexa 594-RBD [1] = format: in vivo; settings: rat cornea after alkali burn; 14 days treatment; Alexa 594-RBD 1 μg/eye, 3 times at day 15, examined a day later
ACE2 [2] = assay: Rat cornea alkali burn: corneal RNA-seq, Ace2 gene expression; format: in vivo; settings: rat cornea after alkali burn; eye drops 3 times/day for 14 days; RNA-seq day 14
Protocol: The rats were anesthetized by intraperitoneal injection of Ketamine (50-100 mg/kg) plus xylazine (5-10 mg/kg). A 4 mm diameter filter paper soaked in 1 N NaOH was placed on the central cornea of the right eye for 45 seconds, and then the eye was thoroughly washed with […] of saline. After injury, the rats were randomly divided into five treatment groups: vehicle; lipoxin A4 (LXA4) from Cayman Chemical (Ann Arbor, MI, USA); R,R Resolvin D6 isomer (RvD6i), R,R neuroprotection D (NPD1), and elovanoid (ELV)-N32. All lipid solutions were prepared at the final concentration of […] using PBS with the minimal contamination of ethanol by evaporating the ethanol and immediately dissolve the lipids in PBS, then vortex well for 2 min. Topical administration (20 μl) was done 3×/day for 14 days. The experiments were double-blinded with the lipid mediators coded during the whole experiments. At the end of the study, when all data was collected, the code was opened.
Injured corneas (n=5/condition) were harvested and homogenized with TRIzol (Thermo Fisher Scientific) on ice with a glass Dounce homogenizer. RNA sequencing was performed as described^14. Briefly, after mRNA extraction and determination of purity, 8 ng of total RNA was reverse transcribed, and total cDNAs were amplified using ISPCR primer, and the library was made with the Nextera XT DNA library preparation kit (Illumina, San Diego, CA, USA). The libraries were pooled with the same molarity and sequenced using the NextSeq 500/550 High Output Kit v2 (75 cycles, Illumina). After demultiplexing, RNA-seq data were aligned to the Rattus Norvegicus reference genome (.ensembl.org/pub/release-98/fasta/rattus_norvegicus/dna/) using the Subread package v2.0.1 alignment function39. The BAM files for sequencing data alignment were counted using featureCounts function of Subread tool^40 using the macOS Catalina. The raw count data were subjected to differential gene expression analysis using DESeq2 package for R^41 with the vehicle group as reference. The adjusted p-values were named as the false discover rate (FDR).

ACE2 [3] = assay: HCEC challenged with IFNγ: Ace2 gene expression; format: cell-based, human; settings: IFNγ 100 ng/ml
From the text: All experiments with human corneal epithelial cells were approved by the Institutional Review Board of LSUHNO and conducted in accordance with NIH guidelines. HCEC were kept frozen in the laboratory at passage 2544. Cells were maintained in keratinocyte growth (KGM) medium containing the keratinocyte basal medium (KBM) (Lonza: CC-3101) supplemented with bovine pituitary extract (BPE), hEGF, Insulin, Hydrocortisone and Gentamicin Sulfate-Amphotericin (GA-1000) (Lonza, Cat. CC-4131). For all experiments, cells were seeded at 30,000 cells/cm2.
(§1) For screening the stimulation of receptor ACE2 by cytokines, the HCEC were cultured with KGM until 50-60% confluence. Then, changed to KBM containing IL-1β, -2, -6 and 8, IFN-α, -ε, and -γ or TNFα at 1, 10 or 100 ng/ml. The cells were harvested after 6 hours and analyze for the gene expression of Ace2. In other experiments, HCEC were stimulated with IFNγ, and thereafter, lipid mediators were added. For the Alexa 594-conjugated RBD binding, IFNγ was used as a cytokine trigger. At 12 hours after cytokine exposure and lipid mediator treatments, […] of labeled RBD was added to the medium. The evaluation of RBD binding was conducted 24 hours after.
Quantitative PCR was performed with the Biomark HD system (Fluidigm, San Francisco, CA, USA). […]

Alexa 594-RBD [4] = assay: HCEC challenged with IFNγ: Alexa 594-RBD binding (unbiased imaging, Imaris); format: cell-based, human; settings: IFNγ 100 ng/ml and lipid mediators 200 nM for 12 h, images 24 h after RBD
Protocol: as §1
Twenty-four hours after Alexa 594-RBD was added to the HCEC, the cells were washed with PBS (3×/5 min) and fixed with 4% paraformaldehyde for 30 minutes at RT. The HCEC were washed 2× with PBS and stained with Hoechst 33342 Solution (ThermoFisher Scientific, Cat. 62249) for 30 minutes at RT. Next, the HCEC were washed 2× with PBS before imaging. For unbiased data collection, 7 designated areas were defined in each well (FIG. 63) and captured with an Olympus FV3000 confocal laser scanning microscopy under “Multi Area Time Lapse” (MATL) mode. All images were acquired with the same parameters and Z-section range, converted and inputted in the Imaris software version 9.5.1. The threshold for the control images was defined by the HCEC without Alexa 594-conjugated RBD of S protein and using it as a threshold filter for the Imaris batch image processing function. The sum of total intensity for each image was used to evaluate the binding efficiency.

[5] = system: human corneal epithelial cells (HCEC); assay: HCEC challenged with IFNγ: SASP secretome (β-Gal staining); format: cell-based; settings: HCEC 24 h after IFN-γ challenge

**Q.** Which “binding of Alexa 594-RBD to injured cornea” value (Alexa 594-RBD [1]) does the source give for CC/C=C\CC(O)\C=C/C=C/C=C/C(O)C/C=C\C/C=C\CCCCCCCCCCCCC(=O)O [ELV-N32, (14Z,17Z,20R,21E,23E,25Z,27S,29Z)-20,27-dihydroxydo-triaconta-14,17,21,23,25,29-hexaenoic acid] here?
**A.** decrease; also recorded: counteracted

**Q.** And the “Ace2 gene expression levels” value (ACE2 [2])?
**A.** decrease

**Q.** What about the “IFNγ-triggered Ace2 activation” value (ACE2 [3]) of the same compound?
**A.** markedly attenuated; also recorded: suppressed

**Q.** And the “IFNγ-stimulated Alexa 594-RBD binding” value (Alexa 594-RBD [4])?
**A.** decrease; also recorded: attenuated

**Q.** What about the “senescence programming genes and SASP secretome activation (β-Gal)” value [5] of the same compound?
**A.** blocked; also recorded: suppressed
